Results: patent publication US5958940A, “Tricyclic compounds useful as inhibitors of farnesyl-protein transferase” (Schering Corporation, priority 1997, dated 1999)

Target: T1, farnesyl protein transferase (Rattus norvegicus, UniProt Q02293+Q04631)
T1 construct: partially purified rat brain farnesyl protein transferase (FPT); from tissue; host or cells: rat brain, partially purified
Experiment: FPT inhibition, in vitro enzyme assay (Ras-CVLS farnesylation by partially purified rat brain FPT)
Type: biochemical

inhibition at 0.1 µM (@0.1 μM) [%]	inhibition at 0.3 µM (@0.3 μM) [%]	Structure (SMILES)
17		O=C(NCc1cccnc1)[C@@H]1CCN1C1c2ccc(Cl)cc2CCc2cc(Br)cnc21 (single isomer, unassigned) [Example 3 Isomer B, 1-(3-bromo-8-chloro-6,11-dihydro-5H-benzo[5,6]cyclohepta[1,2-b]pyridine-11-yl)-N-(3-pyridinylmethyl)2-azetidine carboxamide]
	15	O=C(NCc1cccnc1)[C@@H]1CCCN1C1c2ncc(Br)cc2CCc2cc(Cl)cc(Br)c21 (single isomer, unassigned) [Example 2 Isomer A, 1-(3,10-dibromo-8-chloro-6,11-dihydro-5H-benzo[5,6]cyclohepta[1,2-b]pyridine-11-yl)-N-(3-pyridinylmethyl)-2-pyrrolidine carboxamide]
